From the Deep4Chem optical property database come the findings set out here.

A short description of the data set: solvent given as SMILES.

As for `O=Cc1cc(C=O)c2ccc3c(N4CCCCC4)cc(N4CCCCC4)c4ccc1c2c43`, the emission maximum (in C1COCCO1) was 585 nm; the emission maximum (in CC#N) was determined as 602 nm; the emission maximum (in CC(C)=O) was found to be 598 nm; the emission maximum (in CCCCCC) is given as 557 nm; the emission maximum (in CCO) was 609 nm; the emission maximum (in CCOC(C)=O) amounted to 587 nm. Also, the emission maximum reads like this: (in CO) 613 nm; (in CS(C)=O) 609 nm; (in Cc1ccccc1) 582 nm; (in ClCCl) 602 nm.
Consider `Cc1cn2cc(-c3ccc(-c4ccccc4)cc3)[n-][n+]2c1`, for which the emission maximum (in ClCCl) worked out at 466 nm.
`COc1ccccc1-c1cc2c(o1)=CC1=Cc3cc4oc(-c5ccccc5OC)cc4n3[B-](F)(F)[N+]=21` came in with an emission maximum (in ClC(Cl)Cl) of 680 nm.
The compound `COc1c(Br)c2cc(=O)oc3ccc4cccc1c4c32` displayed an emission maximum (in CC1CCCO1) of 487 nm.
`CN(C)c1ccc(-c2cc(-c3ccc4ccccc4c3)nc(-c3ccccc3)n2)cc1` showed an emission maximum (in C1CCCCC1) of 422 nm, an emission maximum (in CS(C)=O) of 599 nm and an emission maximum (in ClC(Cl)Cl) of 510 nm.
Turning to `c1ccc(-n2c3ccccc3c3cc(-n4ccc5cc(-c6ccc7c(c6)C(c6ccccc6)(c6ccccc6)c6ccccc6-7)ccc54)ccc32)cc1`, the emission maximum (in ClCCl) came out at 378 nm.
Under “in ClCCl”, `COc1ccc(C#Cc2nc3ccccc3nc2-c2ccn(-c3ccccc3)c2)cc1` returned an emission maximum of 474 nm.
`Cc1cc2c(cc1[N+](=O)[O-])NC(=O)CC(=O)N2` yielded an emission maximum (in CS(C)=O) of 350 nm.
The compound `CCN(CC)c1ccc2cc(-c3nc4c5ccccc5c5ccccc5c4n3-c3ccc(C(C)(C)C)cc3)c(=O)oc2c1` yielded an emission maximum (in ClCCl) of 492 nm.
In the case of `CNc1ccc2c(c1)-c1ccccc1C2=O`, the emission maximum (in C1CCCCC1) stood at 489 nm, the emission maximum (in CC#N) turned out to be 548 nm, the emission maximum (in CCO) was 583 nm and the emission maximum (in c1ccccc1) was 509 nm.
In the case of `CC1=C(Cc2ccccc2)C(C)=[N+]2C1=C(C)c1c(C)c(-c3csc(N4CCOCC4)n3)c(C)n1[B-]2(F)F`, the emission maximum by setting is: (in C1CCOC1) 620 nm; (in C1COCCO1) 602 nm; (in CC#N) 537 nm; (in CC(C)O) 543 nm; (in CCO) 538 nm; (in CCOC(C)=O) 545 nm. Further, the emission maximum is recorded as 537 nm (in CN(C)C=O); 539 nm (in CO); 548 nm (in CS(C)=O); 603 nm (in Cc1ccccc1); 607 nm (in ClC(Cl)Cl); 535 nm (in ClCCl).
Turning to `COc1ccc(N(c2ccc(OC)cc2)c2ccc(-c3ccc(C=C(C#N)C#N)o3)cc2)cc1`, under “in ClC(Cl)Cl”, the emission maximum is reported as 696 nm.
As for `COc1ccc(C#Cc2c3cc4ccccc4cc3c(C#Cc3ccc(OC)cc3)c3cc4ccccc4cc23)cc1`, the emission maximum (in ClCCl) is listed as 706 nm.
Under “in c1ccccc1”, `CN(C)c1ccc2nc(-c3ccccc3)c(=O)oc2c1` showed an emission maximum of 500 nm.
In the case of `CC1=CC(C)=[N+]2C1=C(c1ccc(N3CCCCC3)cc1)c1c(C)cc(C)n1[B-]2(F)F`, the emission maximum is reported as 515 nm (in C1CCOC1); 511 nm (in CC#N); 516 nm (in CC(=O)C(C)(C)C); 515 nm (in CC(C)=O); 511 nm (in CCCCCC); 515 nm (in CCOC(C)=O). The compound further returned an emission maximum (in CO) of 514 nm.
Turning to `N#Cc1c(N2CCCC2)cc(-c2ccccc2)c2c1-c1ccccc1C2=O`, the emission maximum (in C1CCOC1) was 527 nm.
In the case of `Cc1cc(C)c(B(c2cc(-c3ccc(C(F)(F)F)cc3)sc2-c2sc(-c3ccc(C(F)(F)F)cc3)cc2P(=O)(c2ccccc2)c2ccccc2)c2c(C)cc(C)cc2C)c(C)c1`, the emission maximum (in CO) is 548 nm.
As to `c1ccc(N(c2ccccc2)c2ccc(-c3nc(-c4ccc(N(c5ccccc5)c5ccccc5)cc4)c4ccccc4n3)cc2)cc1`, the emission maximum worked out at 447 nm (in C1CCCCC1); 518 nm (in C1CCOC1); 565 nm (in CC#N); 568 nm (in CS(C)=O); 534 nm (in ClCCl).
As to `F[B-]1(F)OC(c2ccc(C(F)(F)F)cc2)=Cc2cc(Cl)nc[n+]21`, the emission maximum worked out at 428 nm (in C1CCOC1); 425 nm (in CC#N); 421 nm (in CCCCCC); 434 nm (in Cc1ccccc1); 426 nm (in ClC(Cl)Cl); 426 nm (in ClCCl).
On to `CCCC1=Cc2nc1ccc1[nH]c(cc1CCC)c1nc(c(NC(=O)CCCC(=O)OC)cc3[nH]c2cc3CCC)C(CCC)=C1`, for which, under “in Cc1ccccc1”, the emission maximum is listed as 680 nm.
Under “in CCO”, `CCOC(=O)c1cc(C(=O)NCc2ccccc2)c2ccc(N(C)C)cc2n1` displayed an emission maximum of 586 nm.
Regarding `CCCCN1C(=O)c2cc(Oc3ccc(C(C)(C)C)cc3)c3c4c(Oc5ccc(C(C)(C)C)cc5)cc5c(=O)n6c(c7cc(Oc8ccc(C(C)(C)C)cc8)c(c8c(Oc9ccc(C(C)(C)C)cc9)cc(c2c38)C1=O)c4c57)=Cc1ccc2ccccc2[n+]1[B-]6(F)F`, the emission maximum (in ClCCl) was 684 nm.
Compound `Cc1ccc2nc3c(=O)n(C)c(=O)nc-3n(C)c2c1` registered an emission maximum (in CC#N) of 518 nm.
The compound `O=P1(c2ccccc2)c2ccccc2-c2sc3ccccc3c21` (centres undefined) came in with an emission maximum (in C1CCCCC1) of 417 nm, an emission maximum (in CC#N) of 427 nm, an emission maximum (in CCO) of 434 nm and an emission maximum (in ClCCl) of 428 nm.
The compound `Cc1ccccc1C1=C2C=CC(=[N+](C)C)C=C2[Si](C)(C)c2cc(N(C)C)ccc21` yielded an emission maximum (in O) of 660 nm.
On to `CN(C)c1ccc(-c2cc[n+](C)cc2)s1`, for which the emission maximum (in CCO) was determined as 507 nm.
`O=c1c2ccccc2n2c3ccccc3c(=O)c3cc(-c4ccccc4)cc1c32`: the emission maximum is on record as 475 nm (in CC#N); 447 nm (in CCCCCC); 454 nm (in CCCCOCCCC); 464 nm (in CCOC(C)=O); 477 nm (in CN(C)C=O); 464.98 nm (in Cc1ccccc1). The same compound registered an emission maximum (in c1cc(-c2cccc(-n3c4ccccc4c4ccccc43)c2)cc(-n2c3ccccc3c3ccccc32)c1) of 472 nm and an emission maximum (in c1cc(-n2c3ccccc3c3ccccc32)cc(-n2c3ccccc3c3ccccc32)c1) of 472 nm.
For `CCC(CC)COC1=CC2=C3c4cc(OCC(CC)CC)c(-c5ccccc5)n4[B-](F)(F)[n+]4c3n(c3cc(C(C)(C)C)ccc34)[B-](F)(F)[N+]2=C1c1ccccc1`, the emission maximum runs as follows: (in C1CCOC1) 734 nm; (in CC#N) 733 nm; (in ClCCl) 736 nm.
For the compound `CCC[n+]1ccc(/C=C/c2ccc(N(C)C)cc2)cc1`, the emission maximum (in C1COCCO1) is listed as 557 nm; the emission maximum (in CC(C)O) was determined as 571 nm; the emission maximum (in CCCCO) was 576 nm; the emission maximum (in CCCO) came out at 576 nm; the emission maximum (in CCO) is 576 nm; the emission maximum (in CO) turned out to be 579 nm. The emission maximum by setting is: (in CS(C)=O) 589 nm; (in ClC(Cl)Cl) 560 nm; (in ClCCl) 560 nm; (in c1ccccc1) 552 nm.
Compound `Cc1ccc(C(=O)c2c(C)c3ccc4cccc5c6cccc7ccc2c(c76)c3c45)cc1` came in with an emission maximum (in ClCCl) of 450 nm.
`Cc1cc2c(o1)=CC1=C(C(F)(F)F)c3cc4oc(C)cc4n3[B-](F)(F)[N+]=21` registered an emission maximum (in ClC(Cl)Cl) of 620 nm.
Consider `O=C(/C=C/c1ccc(O)c(O)c1)O[C@H](Cc1ccc(O)c(O)c1)C(=O)O`, for which the emission maximum by setting is: (in C1CCOC1) 397 nm; (in CC#N) 413 nm; (in CCCC#N) 406 nm; (in CCO) 417 nm; (in CN(C)C=O) 420 nm; (in CO) 432 nm. Besides, the emission maximum (in CS(C)=O) was 432 nm, the emission maximum (in ClCCl) turned out to be 396 nm and the emission maximum (in O) worked out at 444 nm.
In turn, `c1cc2ccc3cc4[nH]ccc4c4ccc(c1)c2c34` yielded an emission maximum (in CCOC(C)=O) of 398 nm.
Take `O=c1c2cc(C#Cc3ccc(Cl)cc3)ccc2nc2ccc(C#Cc3ccc(Cl)cc3)cn12`: the emission maximum (in ClCCl) is reported as 478 nm.
In turn, `CC(C)(C)c1ccc(-c2c(-c3cccc(N(c4ccccc4)c4ccccc4)c3)c(C#N)c(-c3cccc(N(c4ccccc4)c4ccccc4)c3)c(-c3ccc(C(C)(C)C)cc3)c2-c2ccc(C(C)(C)C)cc2)cc1` came in with an emission maximum (in C1CCOC1) of 448 nm.
For the compound `COCCOc1cc(C=O)c(OCCOC)cc1C=O`, the emission maximum runs as follows: (in CC(C)(C)O) 478 nm; (in CC(C)CO) 479 nm; (in CC(C)O) 479 nm; (in CCCCO) 462 nm; (in CCCO) 463 nm; (in CCO) 464 nm. Further, the emission maximum by setting is: (in CN(C)C=O) 465 nm; (in CNC=O) 450 nm; (in CO) 466 nm; (in NC=O) 456 nm; (in O) 495 nm.
Where the note is “in ClC(Cl)Cl”, `CN1C(=CC2=C([O-])C(=Cc3oc4ccccc4[n+]3C)C2=O)C(C)(C)c2ccccc21` yielded an emission maximum of 619 nm.
Turning to `COC(=O)c1cc(=O)n(C)c2cc(-c3ccc(N4CCN(C)CC4)cc3)sc12`, the emission maximum reads like this: (in CC#N) 587 nm; (in ClCCl) 550 nm.
Where the note is “in ClCCl”, `Cc1ccc(C2=C(c3ccc(C)cc3)c3cccc4c3c(cc3nc5ccccc5nc34)O2)cc1` came in with an emission maximum of 559 nm.
Turning to `C(#Cc1ccc(-n2c3ccccc3c3ccccc32)cc1)c1ccccc1`, the emission maximum runs as follows: (in CC#N) 443 nm; (in CO) 401 nm; (in Cc1ccccc1) 364 nm; (in ClC(Cl)Cl) 379 nm; (in ClCCl) 390 nm.
